# From publication PMC10673995, “Discovery of a novel cardiac-specific myosin modulator using artificial intelligence-based virtual screening” (Nature Communications, 2023)
# Values joined by “and” are separate entries in the source; they are usually repeats but may differ in a detail not shown here. Equal values may be shown once.
# Target: bovine cardiac myosin S1 (Bos taurus, UniProt Q9BE39)
# Assay: mant-ATP chase single nucleotide turnover, myosin S1;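 note: 0.4 µM S1 preloaded with equimolar mant-ATP, chased by 2 mM ATP, mant fluorescence (ex 360, em 450 nm) read each second over 15 min at 25 °C, biexponential fit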
# Settings: for Representative Traces (mant-ATP chase, normalised signal): representative trace, sheet Figure 3a
# [1] = Beta-cardiac myosin S1, individual replicates
# Sequence of bovine cardiac myosin S1 (Q9BE39 85-778 limits assumed): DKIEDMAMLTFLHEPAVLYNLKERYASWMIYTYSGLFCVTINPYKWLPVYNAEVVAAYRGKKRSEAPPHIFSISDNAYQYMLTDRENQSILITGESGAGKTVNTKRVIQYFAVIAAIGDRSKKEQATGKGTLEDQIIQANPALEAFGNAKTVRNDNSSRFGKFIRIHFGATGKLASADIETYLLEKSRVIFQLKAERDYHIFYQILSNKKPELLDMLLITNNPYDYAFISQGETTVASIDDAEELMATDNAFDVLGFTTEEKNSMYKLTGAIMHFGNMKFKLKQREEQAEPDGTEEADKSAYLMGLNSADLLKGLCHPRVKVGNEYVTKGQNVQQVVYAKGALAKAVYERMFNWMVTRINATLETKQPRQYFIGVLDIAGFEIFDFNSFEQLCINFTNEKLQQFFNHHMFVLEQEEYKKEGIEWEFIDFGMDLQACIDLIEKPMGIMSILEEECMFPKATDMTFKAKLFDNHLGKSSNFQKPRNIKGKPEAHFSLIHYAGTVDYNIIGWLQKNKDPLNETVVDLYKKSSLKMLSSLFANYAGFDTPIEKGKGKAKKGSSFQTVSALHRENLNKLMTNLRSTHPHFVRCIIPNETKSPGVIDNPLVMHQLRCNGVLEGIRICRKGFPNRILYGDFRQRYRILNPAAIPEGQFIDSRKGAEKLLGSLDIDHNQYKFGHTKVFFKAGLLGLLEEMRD
# Sequence of bovine cardiac myosin S1 (P85100 whole entry partner): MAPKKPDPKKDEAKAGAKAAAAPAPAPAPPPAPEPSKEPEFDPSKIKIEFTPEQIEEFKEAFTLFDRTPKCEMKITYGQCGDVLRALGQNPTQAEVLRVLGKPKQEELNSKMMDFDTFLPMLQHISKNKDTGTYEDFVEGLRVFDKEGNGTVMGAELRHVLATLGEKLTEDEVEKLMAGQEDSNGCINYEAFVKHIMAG
smiles,measurement,setting,value
CCc1cc2c(=O)n(NC(=S)NC(C)C)cnc2s1 [F10],kslow,"2 μmol L^-1 Mavacamten or 20 μmol L^-1 F10, control 0.0058 ± 0.0010",0.0014 ± 0.0002 s⁻¹
same,kfast,[1],0.05055 s⁻¹ and 0.0447 s⁻¹ and 0.0368 s⁻¹ and 0.05306 s⁻¹ and 0.06378 s⁻¹ and 0.02378 s⁻¹
same,kslow,[1],0.0006967 s⁻¹ and 0.00183 s⁻¹ and 0.001814 s⁻¹ and 0.000778 s⁻¹ and 0.001483 s⁻¹ and 0.001764 s⁻¹
same,slow phase,[1],77.15% and 78.62% and 63.91% and 49.91% and 65.48% and 83.8%
same,"Representative Traces, normalised fluorescence",t 396 s,0.3381
same,"Representative Traces, normalised fluorescence",t 397 s,0.3913
same,"Representative Traces, normalised fluorescence",t 398 s,0.3527
same,"Representative Traces, normalised fluorescence",t 399 s,0.3731
same,"Representative Traces, normalised fluorescence",t 400 s,0.3893
same,"Representative Traces, normalised fluorescence",t 401 s,0.3649
same,"Representative Traces, normalised fluorescence",t 402 s,0.346
same,"Representative Traces, normalised fluorescence",t 403 s,0.3664
same,"Representative Traces, normalised fluorescence",t 404 s,0.3754
same,"Representative Traces, normalised fluorescence",t 405 s,0.395
same,"Representative Traces, normalised fluorescence",t 406 s,0.3542
same,"Representative Traces, normalised fluorescence",t 407 s,0.3529
same,"Representative Traces, normalised fluorescence",t 408 s,0.371
same,"Representative Traces, normalised fluorescence",t 409 s,0.3805
same,"Representative Traces, normalised fluorescence",t 410 s,0.3829
same,"Representative Traces, normalised fluorescence",t 411 s,0.3594
same,"Representative Traces, normalised fluorescence",t 412 s,0.3318
same,"Representative Traces, normalised fluorescence",t 413 s,0.3454
same,"Representative Traces, normalised fluorescence",t 414 s,0.3732
same,"Representative Traces, normalised fluorescence",t 415 s,0.3239
same,"Representative Traces, normalised fluorescence",t 416 s,0.3536
same,"Representative Traces, normalised fluorescence",t 417 s,0.3763
same,"Representative Traces, normalised fluorescence",t 418 s,0.4062
same,"Representative Traces, normalised fluorescence",t 419 s,0.3409
same,"Representative Traces, normalised fluorescence",t 420 s,0.3417
same,"Representative Traces, normalised fluorescence",t 421 s,0.3218
same,"Representative Traces, normalised fluorescence",t 422 s,0.3761
same,"Representative Traces, normalised fluorescence",t 423 s,0.3809
same,"Representative Traces, normalised fluorescence",t 424 s,0.3886
same,"Representative Traces, normalised fluorescence",t 425 s,0.4176
same,"Representative Traces, normalised fluorescence",t 426 s,0.3716
same,"Representative Traces, normalised fluorescence",t 427 s,0.348
same,"Representative Traces, normalised fluorescence",t 428 s,0.3822
same,"Representative Traces, normalised fluorescence",t 429 s,0.3572
same,"Representative Traces, normalised fluorescence",t 430 s,0.3286
same,"Representative Traces, normalised fluorescence",t 431 s,0.4152
same,"Representative Traces, normalised fluorescence",t 432 s,0.3207
same,"Representative Traces, normalised fluorescence",t 433 s,0.376
same,"Representative Traces, normalised fluorescence",t 434 s,0.351
same,"Representative Traces, normalised fluorescence",t 435 s,0.3814
same,"Representative Traces, normalised fluorescence",t 436 s,0.3747
same,"Representative Traces, normalised fluorescence",t 437 s,0.339
same,"Representative Traces, normalised fluorescence",t 438 s,0.3394
same,"Representative Traces, normalised fluorescence",t 439 s,0.2828
same,"Representative Traces, normalised fluorescence",t 440 s,0.3588
same,"Representative Traces, normalised fluorescence",t 441 s,0.3824
same,"Representative Traces, normalised fluorescence",t 442 s,0.3473
same,"Representative Traces, normalised fluorescence",t 443 s,0.3776
same,"Representative Traces, normalised fluorescence",t 444 s,0.2942
same,"Representative Traces, normalised fluorescence",t 445 s,0.3451
same,"Representative Traces, normalised fluorescence",t 446 s,0.3599
same,"Representative Traces, normalised fluorescence",t 447 s,0.3632
same,"Representative Traces, normalised fluorescence",t 448 s,0.3962
same,"Representative Traces, normalised fluorescence",t 449 s,0.3522
same,"Representative Traces, normalised fluorescence",t 450 s,0.334
same,"Representative Traces, normalised fluorescence",t 451 s,0.3312
same,"Representative Traces, normalised fluorescence",t 452 s,0.3355
same,"Representative Traces, normalised fluorescence",t 453 s,0.3202
same,"Representative Traces, normalised fluorescence",t 454 s,0.3011
same,"Representative Traces, normalised fluorescence",t 455 s,0.3492
same,"Representative Traces, normalised fluorescence",t 456 s,0.2942
same,"Representative Traces, normalised fluorescence",t 457 s,0.3901
same,"Representative Traces, normalised fluorescence",t 458 s,0.3305
same,"Representative Traces, normalised fluorescence",t 459 s,0.3712
same,"Representative Traces, normalised fluorescence",t 460 s,0.3492
same,"Representative Traces, normalised fluorescence",t 461 s,0.3691
same,"Representative Traces, normalised fluorescence",t 462 s,0.3499
same,"Representative Traces, normalised fluorescence",t 463 s,0.3959
same,"Representative Traces, normalised fluorescence",t 464 s,0.3352
same,"Representative Traces, normalised fluorescence",t 465 s,0.2964
same,"Representative Traces, normalised fluorescence",t 466 s,0.3332
same,"Representative Traces, normalised fluorescence",t 467 s,0.3397
same,"Representative Traces, normalised fluorescence",t 468 s,0.2957
same,"Representative Traces, normalised fluorescence",t 469 s,0.3164
same,"Representative Traces, normalised fluorescence",t 470 s,0.3318
same,"Representative Traces, normalised fluorescence",t 471 s,0.303
same,"Representative Traces, normalised fluorescence",t 472 s,0.2843
same,"Representative Traces, normalised fluorescence",t 473 s,0.3488
same,"Representative Traces, normalised fluorescence",t 474 s,0.3514
same,"Representative Traces, normalised fluorescence",t 475 s,0.3348
same,"Representative Traces, normalised fluorescence",t 476 s,0.2621
same,"Representative Traces, normalised fluorescence",t 477 s,0.3016
same,"Representative Traces, normalised fluorescence",t 478 s,0.2808
same,"Representative Traces, normalised fluorescence",t 479 s,0.2939
same,"Representative Traces, normalised fluorescence",t 480 s,0.3383
same,"Representative Traces, normalised fluorescence",t 481 s,0.3502
same,"Representative Traces, normalised fluorescence",t 482 s,0.3436
same,"Representative Traces, normalised fluorescence",t 483 s,0.4051
same,"Representative Traces, normalised fluorescence",t 484 s,0.3367
same,"Representative Traces, normalised fluorescence",t 485 s,0.376
same,"Representative Traces, normalised fluorescence",t 486 s,0.3528
same,"Representative Traces, normalised fluorescence",t 487 s,0.3472
same,"Representative Traces, normalised fluorescence",t 488 s,0.3853
same,"Representative Traces, normalised fluorescence",t 489 s,0.3935
same,"Representative Traces, normalised fluorescence",t 490 s,0.3358
same,"Representative Traces, normalised fluorescence",t 491 s,0.3169
same,"Representative Traces, normalised fluorescence",t 492 s,0.3123
same,"Representative Traces, normalised fluorescence",t 493 s,0.2845
same,"Representative Traces, normalised fluorescence",t 494 s,0.2849
same,"Representative Traces, normalised fluorescence",t 495 s,0.3259
same,"Representative Traces (mant-ATP chase, normalised signal)",t = 796 s,0.1783
same,"Representative Traces (mant-ATP chase, normalised signal)",t = 797 s,0.1159
